Measurements: ChEMBL document CHEMBL1149002, “Antineoplastic agents, 116. An evaluation of the marine ascidian Aplidium californicum” (1986)

Tests used:
Type in all cases: functional
P388 [1] = test: In vivo antineoplastic activity against mouse P388 cells assessed as life extension at 46 to 92 ug/kg
P388 [2] = test: In vivo antineoplastic activity against mouse P388 cells assessed as life extension at 46 to 185 ug/kg
P388 [3] = test: In vivo antineoplastic activity against mouse P388 cells assessed as life extension at 3.1 mg/kg

CCCC(=O)O[C@H]1/C(=C/C(=O)OC)C[C@@H]2C[C@H]([C@@H](C)O)OC(=O)C[C@H](O)C[C@@H]3C[C@H](OC(=O)CC(C)C)C(C)(C)[C@](O)(C[C@@H]4C/C(=C/C(=O)OC)C[C@H](/C=C/C(C)(C)[C@]1(O)O2)O4)O3 [BRYOSTATIN 4]
Activity (P388 [1]): 62%

COC(=O)/C=C1/C[C@H]2C[C@]3(O)O[C@H](C[C@@H](O)CC(=O)O[C@@H]([C@@H](C)O)C[C@H]4C/C(=C\C(=O)OC)[C@H](OC(C)=O)[C@@](O)(O4)C(C)(C)/C=C/[C@@H](C1)O2)C[C@H](OC(=O)CC(C)C)C3(C)C [BRYOSTATIN 5]
Activity (P388 [2]): 45%

CC(C)=CCc1cc(O)ccc1O [PRENYLHYDROQUINONE]
Activity (P388 [3]): 38%
